Measured values as given in ChEMBL document CHEMBL1671724, “IncI1 plasmid carrying extended-spectrum-beta-lactamase gene blaCTX-M-1 in Salmonella enterica isolates from poultry and humans in France, 2003 to 2008” (2010).
≈ marks a conversion by molar mass, not a printed value.

Legend:
[1] = test system: Salmonella typhimurium; experiment: Antimicrobial activity against Salmonella Typhimurium 08-1537 by Etest; format: functional, Salmonella enterica subsp. enterica serovar Typhimurium; details: Salmonella enterica
[2] = test system: Salmonella typhimurium; experiment: Antimicrobial activity against Salmonella Typhimurium 08-2211 by Etest; format: functional, Salmonella enterica subsp. enterica serovar Typhimurium; details: Salmonella enterica
[3] = test system: Escherichia coli; experiment: Antimicrobial activity against Escherichia coli 08-1537TC1 transconjugant expressing IncI1 plasmid-encoded beta lactamase CTX-M-1 by Etest
[4] = Antimicrobial activity against Salmonella Newport 03-8748 by Etest; format: functional, Salmonella enterica subsp. enterica serovar Newport; details: Salmonella enterica
[5] = test system: Salmonella typhimurium; experiment: Antimicrobial activity against Salmonella Typhimurium 06-6550 by Etest; format: functional, Salmonella enterica subsp. enterica serovar Typhimurium; details: Salmonella enterica
[6] = test system: Salmonella typhimurium; experiment: Antimicrobial activity against Salmonella Typhimurium 05-9280 by Etest; format: functional, Salmonella enterica subsp. enterica serovar Typhimurium; details: Salmonella enterica
[7] = test system: Salmonella typhimurium; experiment: Antimicrobial activity against Salmonella Typhimurium 08-843 by Etest; format: functional, Salmonella enterica subsp. enterica serovar Typhimurium; details: Salmonella enterica
[8] = test system: Escherichia coli; experiment: Antimicrobial activity against Escherichia coli 08-843TC1 transconjugant expressing IncI1 plasmid-encoded beta lactamase CTX-M-1 by Etest; format: functional
[9] = test system: Escherichia coli; experiment: Antimicrobial activity against Escherichia coli 06-6550TC1 transconjugant expressing IncI1 plasmid-encoded beta lactamase CTX-M-1 by Etest; format: functional
[10] = test system: Salmonella typhimurium; experiment: Antimicrobial activity against Salmonella Typhimurium 08-1745 by Etest; format: functional, Salmonella enterica subsp. enterica serovar Typhimurium; details: Salmonella enterica
[11] = Antimicrobial activity against Salmonella London 07-819 by Etest; format: functional, Salmonella enterica subsp. enterica serovar London; details: Salmonella enterica
[12] = test system: Escherichia coli; experiment: Antimicrobial activity against Escherichia coli 06CEB6542SALTC1 transconjugant expressing IncI1 plasmid-encoded beta lactamase CTX-M-1 by Etest; format: functional
[13] = test system: Salmonella; experiment: Antimicrobial activity against Salmonella Llandoff 06CEB6542SAL by Etest; format: functional
[14] = test system: Escherichia coli; experiment: Antimicrobial activity against Escherichia coli 03-8748TC1 transconjugant expressing IncI1 plasmid-encoded beta lactamase CTX-M-1 by Etest; format: functional
[15] = test system: Escherichia coli; experiment: Antimicrobial activity against Escherichia coli 08-2712TC1 transconjugant expressing IncI1 plasmid-encoded beta lactamase CTX-M-1 by Etest
[16] = test system: Escherichia coli; experiment: Antimicrobial activity against Escherichia coli 07-819TC1 transconjugant expressing IncI1 plasmid-encoded beta lactamase CTX-M-1 by Etest; format: functional
[17] = test system: Escherichia coli; experiment: Antimicrobial activity against Escherichia coli 05-9280TC1 transconjugant expressing IncI1 plasmid-encoded beta lactamase CTX-M-1 by Etest; format: functional
[18] = Antimicrobial activity against Salmonella 4,5,12:i:- 08-2712 by Etest; format: functional, Salmonella enterica subsp. enterica serovar 4,[5],12:i:-; details: Salmonella enterica

Compound | MIC [1] | MIC [2] | MIC [3] | MIC [4] | MIC [5] | MIC [6] | MIC [7] | MIC [8] | MIC [9] | MIC [10] | MIC [11] | MIC [12] | MIC [13] | MIC [14] | MIC [15] | MIC [16] | MIC [17] | MIC [18]
CC(C)(O/N=C(\C(=O)N[C@@H]1C(=O)N2C(C(=O)[O-])=C(C[n+]3ccccc3)CS[C@H]12)c1csc(N)n1)C(=O)O [CEFTAZIDIME] | > 256 µg/mL | 256 µg/mL (≈ 468 µM) | 128 µg/mL (≈ 234 µM) | > 256 µg/mL | 256 µg/mL (≈ 468 µM) | > 256 µg/mL | 256 µg/mL (≈ 468 µM) | 256 µg/mL (≈ 468 µM) | 64 µg/mL (≈ 117 µM) | > 256 µg/mL | > 256 µg/mL | 8 µg/mL | 64 µg/mL (≈ 117 µM) | 256 µg/mL (≈ 468 µM) | 64 µg/mL (≈ 117 µM) | 256 µg/mL (≈ 468 µM) | > 256 µg/mL | 256 µg/mL (≈ 468 µM)
CO/N=C(\C(=O)N[C@@H]1C(=O)N2C(C(=O)O)=C(CSc3nc(=O)c(O)nn3C)CS[C@H]12)c1csc(N)n1 [CEFTRIAXONE] | 64 µg/mL (≈ 115 µM) | 8 µg/mL (≈ 14.4 µM) | 8 µg/mL (≈ 14.4 µM) | 8 µg/mL (≈ 14.4 µM) | 16 µg/mL (≈ 28.9 µM) | 32 µg/mL (≈ 57.7 µM) | 16 µg/mL (≈ 28.9 µM) | 8 µg/mL (≈ 14.4 µM) | 4 µg/mL (≈ 7.21 µM) | 16 µg/mL (≈ 28.9 µM) | 8 µg/mL (≈ 14.4 µM) | 0.5 µg/mL | 4 µg/mL (≈ 7.21 µM) | 2 µg/mL (≈ 3.61 µM) | 8 µg/mL (≈ 14.4 µM) | 4 µg/mL (≈ 7.21 µM) | 32 µg/mL (≈ 57.7 µM) | 16 µg/mL (≈ 28.9 µM)
